Molecules are shown by their SMILES. pIC50: −log10 of the molar value. “Also recorded” adds a separate entry of the source. Like-named read-outs stand apart in the source and are kept apart here.

For data set [1], the system named is prostate cancer cell lines (e.g. DU145/TXR). In words: Cell based assay, cell viability (CellTiter-Glo), prostate cancer cell lines. The note with it: Homo sapiens, 72 hours treatment, final concentration 0 to 2 μM. The method, boiled down:
(§1)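 Read-out is ATP-dependent luminescence (CellTiter-Glo) taken after 72 h of exposure to compound at final concentrations from 0 to 2 μM. Cells were plated 24 h beforehand.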

The subject of data set [2] is ovarian cancer cell lines. In words: Cell based assay, cell viability (CellTiter-Glo), ovarian cancer cell lines. The note with it: Homo sapiens; OVCAR-3 cells. In outline:
as §1
For orientation: In ATP-based viability assays light output follows the ATP content of the culture.

Data set [3] is described as follows: IV and IP single toxicity test in mice. The note with it: for Percentage (dead subjects), single toxicity evaluation: Mouse. The data set is classed as in vivo.
A further data set deals with zebrafish. As to the kind of experiment: Cardiotoxicity experiment using zebrafish (heart rate, lethality). The data set is classed as in vivo. As to conditions: 5 uM, n = 10.
Data set [4] is described as follows: Cell based assay, cytotoxicity in RT4 papilloma cells (selectivity). Further details: species or system human. The note with it: human; RT4 cells (benign), 72 hours.
Data set [5] concerns MBT-2: Mouse bladder transitional cell carcinoma. In words: Cell based assay, cytotoxicity in MBT-2 cells. The note with it: 72 hours. On the procedure:
(§2) Commercially available bladder cancer, prostate cancer, lung cancer, breast cancer, blood cancer, pancreatic cancer, colorectal cancer, brain cancer, neuroblastoma, melanoma, liver cancer, cervical carcinoma, ovarian cancer, renal cancer, and papilloma cell lines were each treated with trypsin-EDTA and cultured, followed by being seeded in each well of a 96 well plate. After 24 hours of treatment at constant temperature, the respective cells were treated with the candidate compound so that a final concentration became 0 to 2 μM. The treated cells were additionally cultured for 72 hours, and cell viability was measured by using an ATP detection method (CellTiter-Glo® Luminescent Cell Viability Assay, Promega).

In data set [6] the test system is KU-19-19: Bladder carcinoma. As to the kind of experiment: Cell based assay, cytotoxicity in KU19-19 cells. The note with it: Homo sapiens, 72 hours. On the procedure: as §2
The subject of data set [7] is UM-UC-3: human urinary bladder transitional cell carcinoma. In words: Cell based assay, cytotoxicity in UM-UC-3 cells. The note with it: UMUC3, 72 hours. On the procedure: as §2
The mark [8] stands for this setting: CWR22 cells, read-out: IC50, prostate cancer cell line CWR22.
Setting [9] is: DU-145, DU145/TXR cells, read-out: IC50, prostate cancer cell line DU145/TXR.
[10] abbreviates: DU-145, DU145 cells, read-out: IC50, prostate cancer cell line DU145.
Where [11] appears, read: LNcap cells, read-out: IC50, prostate cancer cell line LNcap.
Where [12] appears, read: PC-3 cells, read-out: IC50, prostate cancer cell line PC-3.
Where [13] appears, read: IV and IP single toxicity tests at 40 mpk, 40 mg/kg.

As for `CC(=O)c1c([S+]([O-])Cc2ccccc2)nc2c(Br)ccc(Cl)c2c1O` (centres unmarked) [Compound 4], the pIC50 in data set [1] (setting [8]) was 5.78; in data set [1] (setting [9]) it was 5.92; in data set [1] (setting [10]), 5.85; in data set [1] (setting [11]) it was under 5.70; in data set [1] (setting [12]) it was 5.82; in data set [2] it was 6.09. Further, in data set [3] (setting [13]), the Dead subjects entry is “No dead subjects were observed”. In addition, the “General symptoms (feed intake, drinking water intake)” value in data set [3] (setting [13]) was “Feeding and drinking water intakes were good, and no other abnormal symptoms were observed”. Further, the Weight changes result in data set [3] (setting [13]) is listed as “no significant weight changes; also recorded: a weight gain was observed, but weight gain was slightly reduced in some subjects”. Besides, the “Percentage (dead subjects), single toxicity evaluation” value in data set [3] (Female, IP 40 mg/kg) was 0 (0/2); in data set [3] (Female, IV 40 mg/kg) it was 0 (0/2); in data set [3] (Male, IP 40 mg/kg), 0 (0/2); in data set [3] (Male, IV 40 mg/kg) it was 0 (0/2). Besides, the “Changes (%) in heart rate” value in the data set with zebrafish (mean) came to 88.5%. Besides, the Lethality with zebrafish is on record as 1/10.

One may read the IC50 as the point on the concentration scale where inhibition reaches its midpoint. Lower therefore signals greater potency in that assay. Take `CC(=O)c1c([S+]([O-])Cc2ccc(-n3cccn3)nc2)[nH]c2c(Br)ccc(Cl)c2c1=O` (centres unmarked) [Compound 99, 2-(((6-(1H-pyrazol-1-yl)pyridin-3-yl)methyl)sulfinyl)-3-acetyl-8-bromo-5-chloroquinolin-4(1H)-one]: the pIC50 in data set [1] (setting [8]) is 5.91; in data set [1] (setting [9]), 5.97; in data set [1] (setting [10]), 6.01; in data set [1] (setting [11]), under 5.70; in data set [1] (setting [12]), 5.82; in data set [2], 6.20. In data set [4], this compound came in with a 50% inhibitory concentration (IC50) at 72 h of over 10 µM. In addition, the IC50 in data set [5] worked out at 0.47 µM; in data set [6], 1.12 µM; in data set [7], 0.77 µM.

With `CC(=O)c1c([S+]([O-])Cc2ccccc2C#N)[nH]c2c(Br)ccc(Cl)c2c1=O` (centres unmarked) [Compound 58, 2-(((3-acetyl-8-bromo-5-chloro-4-oxo-1,4-dihydroquinolin-2-yl)sulfinyl)methyl)benzonitrile], the pIC50 in data set [1] (setting [8]) was 5.92; in data set [1] (setting [9]), 5.92; in data set [1] (setting [10]) it was 5.91; in data set [1] (setting [11]), 5.84; in data set [1] (setting [12]) it was 5.89; in data set [2], 6.15.

On to `CC(=O)c1c([S+]([O-])Cc2ccccc2)n(C(=O)c2ccc(Br)cc2)c2c(Br)ccc(Cl)c2c1=O` (centres unmarked) [Compound 20, 3-acetyl-2-(benzylsulfinyl)-8-bromo-1-(4-bromobenzoyl)-5-chloroquinolin-4(1H)-one], for which the pIC50 in data set [1] (setting [8]), in data set [1] (setting [9]), in data set [1] (setting [10]), in data set [1] (setting [11]), in data set [1] (setting [12]) and in data set [2] was under 5.70 throughout.

`CC(=O)c1c([S+]([O-])Cc2cc(C)on2)[nH]c2c(F)ccc(F)c2c1=O` (centres unmarked) [Compound 82, 3-acetyl-5,8-difluoro-2-(((5-methylisoxazol-3-yl)methyl)sulfinyl)quinolin-4(1H)-one]: the pIC50 in data set [1] (setting [8]), in data set [1] (setting [9]), in data set [1] (setting [10]), in data set [1] (setting [11]) and in data set [2] was under 5.70 each time.

As for `CC(C)C(=O)c1c([S+]([O-])Cc2ccc(SC(F)(F)F)cc2)[nH]c2c(F)ccc(F)c2c1=O` (centres unmarked) [Compound 85, 5,8-difluoro-3-isobutyryl-2-((4-((trifluoromethyl)thio)benzyl)sulfinyl)quinolin-4(1H)-one], the pIC50 in data set [1] (setting [8]), in data set [1] (setting [9]), in data set [1] (setting [10]), in data set [1] (setting [11]) and in data set [2] was under 5.70 throughout.

In the case of `COc1cccc2[nH]c([S+]([O-])Cc3cc(C)on3)c(C(C)=O)c(=O)c12` (centres unmarked) [Compound 94, 3-acetyl-5-methoxy-2-(((5-methylisoxazol-3-yl)methyl)sulfinyl)quinolin-4(1H)-one], the pIC50 in data set [1] (setting [8]) was under 5.70; in data set [1] (setting [9]), under 5.70; in data set [1] (setting [10]), under 5.70; in data set [1] (setting [11]) it was under 5.70; in data set [2], 5.96.

For `CC(=O)c1c([S+]([O-])Cc2cccc(C#N)c2)[nH]c2c(Br)ccc(Cl)c2c1=O` (centres unmarked) [Compound 28, 3-(((3-acetyl-8-bromo-5-chloro-4-oxo-1,4-dihydroquinolin-2-yl)sulfinyl)methyl)benzonitrile], the pIC50 in data set [1] (setting [8]) was 5.97; in data set [1] (setting [9]) it was 6.00; in data set [1] (setting [10]) it was 5.89; in data set [1] (setting [11]) it was 5.87; in data set [1] (setting [12]) it was 5.94; in data set [2] it was 6.16.

On to `CC(=O)c1c([S+]([O-])Cc2ccc(NS(C)(=O)=O)cc2)[nH]c2c(Br)ccc(Cl)c2c1=O` (centres unmarked) [Compound 103, N-(4-(((3-acetyl-8-bromo-5-chloro-4-oxo-1,4-dihydroquinolin-2-yl)sulfinyl)methyl)phenyl)methane-sulfonamide], for which the pIC50 in data set [1] (setting [8]), in data set [1] (setting [9]), in data set [1] (setting [10]), in data set [1] (setting [11]) and in data set [2] was under 5.70 each time.

Regarding `COCSc1[nH]c2c(Br)ccc(Cl)c2c(=O)c1C(C)=O` [Compound 61, 3-acetyl-8-bromo-5-chloro-2-((methoxymethyl)thio)quinolin-4(1H)-one], the pIC50 in data set [1] (setting [8]), in data set [1] (setting [9]), in data set [1] (setting [10]), in data set [1] (setting [11]), in data set [1] (setting [12]) and in data set [2] was under 5.70 throughout.

Consider `CC(=O)c1c([S+]([O-])Cc2ccc(Cl)cc2)[nH]c2c(Br)ccc(Cl)c2c1=O` (centres unmarked) [Compound 11, 3-acetyl-8-bromo-5-chloro-2-((4-chlorobenzyl)sulfinyl)quinolin-4(1H)-one], for which the pIC50 in data set [1] (setting [8]) was under 5.70; in data set [1] (setting [9]) it was 5.74; in data set [1] (setting [10]), under 5.70; in data set [1] (setting [11]), under 5.70; in data set [1] (setting [12]), under 5.70; in data set [2], under 5.70.

Regarding `CC(=O)c1c(S)[nH]c2c(Br)ccc(Cl)c2c1=O` [Compound 62, 3-acetyl-8-bromo-5-chloro-2-mercaptoquinolin-4(1H)-one], the pIC50 in data set [1] (setting [8]), in data set [1] (setting [9]), in data set [1] (setting [10]), in data set [1] (setting [11]), in data set [1] (setting [12]) and in data set [2] was under 5.70 throughout.

On to `COc1cccc2[nH]c([S+]([O-])Cc3ccc(S(F)(F)(F)(F)F)cc3)c(C(C)=O)c(=O)c12` (centres unmarked) [Compound 93, 3-acetyl-5-methoxy-2-((4-(pentafluoro--sulfanyl)benzyl)sulfinyl)quinolin-4(1H)-one], for which the pIC50 in data set [1] (setting [8]), in data set [1] (setting [9]), in data set [1] (setting [10]), in data set [1] (setting [11]) and in data set [2] was under 5.70 in each case.

For the compound `CC(=O)c1c(S(C)(=O)=O)n(C(=O)c2ccc(Br)cc2)c2c(Br)ccc(Cl)c2c1=O` [Compound 21, 3-acetyl-8-bromo-1-(4-bromobenzoyl)-5-chloro-2-(methylsulfonyl)quinolin-4(1H)-one], the pIC50 in data set [1] (setting [8]), in data set [1] (setting [9]), in data set [1] (setting [10]), in data set [1] (setting [11]), in data set [1] (setting [12]) and in data set [2] was under 5.70 throughout.

Consider `CC(=O)c1c(SCC#N)[nH]c2c(Br)ccc(Cl)c2c1=O` [Compound 66, 2-((3-acetyl-8-bromo-5-chloro-4-oxo-1,4-dihydroquinolin-2-yl)thio)acetonitrile], for which the pIC50 in data set [1] (setting [8]), in data set [1] (setting [9]), in data set [1] (setting [10]), in data set [1] (setting [11]), in data set [1] (setting [12]) and in data set [2] was under 5.70 throughout.

Take `CC(=O)c1c(Sc2ccc(Br)cc2)[nH]c2c(Br)ccc(Cl)c2c1=O` [Compound 16, 3-acetyl-8-bromo-2-((4-bromophenyl)thio)-5-chloroquinolin-4(1H)-one]: the pIC50 in data set [1] (setting [8]), in data set [1] (setting [9]), in data set [1] (setting [10]), in data set [1] (setting [11]), in data set [1] (setting [12]) and in data set [2] was under 5.70 throughout.
